Source: patent US9149513B2, “Method and pharmacological composition for the diagnosis and treatment of male sub-fertility” (PERINESS LTD., priority 2006, dated 2015)

System: intracellular sperm cell DNase
Test: Inhibition of intracellular sperm cell DNase by citrate
Format: cell-based
Conditions: 10 mM citrate, up to 8 hours, activity measured every hour
Description: Sperm cells were subjected to three cycles of freezing and thawing and were then centrifuged for 10 min (27,000 g, 4° C.). […] 0.3 ml of the supernatant was added to 0.6 ml of DNase activity buffer and the mixture was measured in a spectrophotometer at 260 nm against a reference that contained only buffer and medium. Calibration curves were made using a commercial bovine DNase I. Sperm cell internal DNase was measured in Kunitz units. One Kunitz unit is defined as the amount of DNase that produces an increase of 1 O.D. per minute at 260 nm in a 1 cm pathlength at pH 5 at 25° C., in a reaction buffer that contains 5 mM MgSO4x7H2O, 0.1 M NaAcetate pH 5 and 4 mg % Calf thymus DNA. Plasma DNase was measured in Bartoov units. One Bartoov unit (BU) is defined as the amount of enzyme that produces a ΔA260 of 0.001 per min in 1 cm pathlength at pH 7.5 at 25° C., in a reaction buffer that contains 0.1M Tris, 10 mM CaCl2, 10 mM MnCl2 and 0.05 mg/ml calf thymus DNA.
In order to examine whether the DNase inhibitor citrate can inhibit intracellular sperm cell DNase, sperm cells were incubated with or without 10 mM citrate for up to 8 hours. The intracellular DNase activity was measured every hour and the sum of the DNase activity was calculated.

O=C(O)CC(O)(CC(=O)O)C(=O)O [citrate]
sum of intracellular DNase activity, % of control sperm cells: 43%
